One data set has as its system cholesterol biosynthesis. Description: Test C: Inhibition of cholesterol biosynthesis in vivo. More on the design: species or system Male Sprague-Dawley rats. The following applies: oral administration of 0.2 mg/kg; relative to the measured value of the control group; serum nonsaponifiable lipids. As to the method: Male Sprague-Dawley rats weighing about 150 g were fed normal Purina chow diet and water ad libitum, and exposed to 12 hours light/12 hours dark lighting pattern (2:00 PM - 2:00 AM dark) prior to use for in vivo inhibition test of cholesterol biosynthesis. Animals were separated groups consisting of five rats as to be average mean body weight in each groups. Test compounds at dosage of 0.02-0.2 mg/kg body weight (0.4 ml/100 g body weight), were dissolved in water or suspended in 0.5% methyl cellulose and orally administered at 2-3 hours before mid-dark (8:00 PM), while cholesterol biosynthesis reaches to maximum in rats. As control, rats were orally administered only water or vehicle. At 90 minutes after sample administration, rats were injected intraperitoneally with 10 »Ci of [2-¹⁴C]sodium acetate at volume of 0.2 ml per one. 2 Hours later, blood samples were obtained and serum were separated immediately. Total lipids were extracted according to the method of Folch et al. and saponified with EtOH-KOH. Nonsaponifiable lipids were extracted with petroleum ether and radio activity incorporated into nonsaponifiable lipids was counted.
Inhibitory activity was indicated as percent decrease of counts in testing groups (DPM/2 ml serum/2 hours) from that in control group.

Another data set is described as follows: Test D: Acute toxicity. The settings on record: mouse, in vivo, po, 1000 mg/kg; orally administered 1,000 mg/kg, 0.5% CMC suspension; mortality after seven days; group of three mice. As for the experimental part:
A 0.5% CMC suspension of a test compound was orally administered to ICR male mice (group of three mice). The acute toxicity was determined based on the mortality after seven days. With compound I-5-1, I-5-2, I-5-4, I-5-7, I-5-10, I-5-11, I-5-12, I-5-14 and I-5-15 of the present invention, the mortality was 0% even when they were orally administered in an amount of 1,000 mg/kg, respectively.

Another data set addresses T1, Hep G2 cells (Homo sapiens, UniProt P04035).
T1 sequence (P04035 1-888): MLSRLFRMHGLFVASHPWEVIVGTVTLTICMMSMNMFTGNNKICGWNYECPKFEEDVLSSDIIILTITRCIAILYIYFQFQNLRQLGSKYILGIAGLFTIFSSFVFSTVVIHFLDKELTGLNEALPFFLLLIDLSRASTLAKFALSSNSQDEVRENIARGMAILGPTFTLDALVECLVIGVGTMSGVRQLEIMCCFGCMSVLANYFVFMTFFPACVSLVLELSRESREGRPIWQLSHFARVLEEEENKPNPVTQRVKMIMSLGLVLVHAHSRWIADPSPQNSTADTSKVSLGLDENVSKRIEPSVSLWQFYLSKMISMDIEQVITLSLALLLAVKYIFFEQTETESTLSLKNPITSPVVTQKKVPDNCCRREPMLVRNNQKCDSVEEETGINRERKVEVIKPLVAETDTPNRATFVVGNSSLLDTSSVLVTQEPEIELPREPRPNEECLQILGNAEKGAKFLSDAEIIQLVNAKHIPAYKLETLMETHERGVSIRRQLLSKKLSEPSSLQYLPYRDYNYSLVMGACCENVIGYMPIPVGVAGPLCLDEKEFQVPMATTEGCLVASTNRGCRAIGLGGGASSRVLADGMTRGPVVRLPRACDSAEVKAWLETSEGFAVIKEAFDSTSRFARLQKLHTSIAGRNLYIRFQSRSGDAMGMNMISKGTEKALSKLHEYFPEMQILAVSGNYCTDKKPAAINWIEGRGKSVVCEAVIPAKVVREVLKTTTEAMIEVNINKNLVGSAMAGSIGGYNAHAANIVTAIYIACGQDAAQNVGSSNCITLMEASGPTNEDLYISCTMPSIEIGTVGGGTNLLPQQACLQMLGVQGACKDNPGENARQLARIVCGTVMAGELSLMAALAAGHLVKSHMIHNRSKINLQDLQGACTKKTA
The data set can be described thus: Test B-1: Inhibition of cholesterol biosynthesis in culture cells ([2-14C]sodium acetate added at 0 hr after addition of compounds). The settings on record: HepG2, concentration of 1.0 x 10⁻⁷ mol/ℓ, read-out: Inhibitory activities %. In kind it is cell-based. As to the method: Hep G2 cells at over 5th passage were seeded to 12 well plates and incubated with Dulbecco's modified Eagle (DME) medium containing 10% of fetal bovine serum (FBS) at 37°C, 5% CO₂ until cells were confluent for about 7 days. Cells were exposed to the DME medium contaiing 5% of lipoprotein deficient serum (LpDS) prepared by ultracentrifugation method for over 24 hours. Medium was changed to 0.5 ml of fresh 5% LpDS containing DME before assay and 10 »l of test compound solution dissolved in water or DMSO were added. 0.2 »Ci of [2-¹⁴C]sodium acetate (20 »l) was added at 0 hr(B-1) or 4 hrs(B-2) after addition of compounds. After 4 hrs further incubation with [2-¹⁴C]sodium acetate, medium was removed and cells were washed with phosphate buffered saline (PBS) chilled at 4°C. Cells were scraped with rubber policeman and collected to tubes with PBS and digested with 0.2 ml of 0.5 N KOH at 37°C. Aliquot of digestion was used for protein analysis and remaining was saponified with 1 ml of 15% EtOH-KOH at 75°C for 1 hour. Nonsaponifiable lipids were extracted with petroleum ether and ¹⁴C radioactivity was counted. Counts were revised by cell protein and indicated with DPM/mg protein. Inhibitory activity of compounds was indicated with IC50.

From patent EP0339358B1, “Pyrazolopyridine type mevalonolactones” (NISSAN CHEMICAL INDUSTRIES LTD., priority 1988, dated 1989) come the findings set out here.

Each structure is given as a SMILES string.

For the compound `CCC(C)C(=O)OC1CC(O)C=C2C=CC(C)C(CCC(O)CC(O)CC(=O)O)C21` (stereo not shown) [CS-514, reference compound], in the data set on cholesterol biosynthesis, the “percent decrease of counts” value stood at 39%.

The term mortality denotes the percentage killed. As to `Cc1nn(C)c2nc(C(C)C)c(/C=C/C(O)CC(O)CC(=O)O)c(-c3ccc(F)cc3)c12` (stereo not shown) [Compound I-5-1, Sodium (E)-7-[4′-(4˝-fluorophenyl)-1′,3′-dimethyl-6′-(1˝-methylethyl)pyrazolo[3,4-b]pyridin-5#MIN#-yl]-3,5-dihydroxyhept-6-enoate], the mortality at 168 h in “Test D: Acute toxicity” amounted to 0%.

As to `Cc1nn(-c2ccccc2)c2nc(C(C)C)c(/C=C/C(O)CC(O)CC(=O)O)c(-c3ccc(F)cc3)c12` (stereo not shown) [Compound I-5-2], the mortality at 168 h in “Test D: Acute toxicity” amounted to 0%.

As to `Cc1c2c(-c3ccc(F)cc3)c(/C=C/C(O)CC(O)CC(=O)O)c(C(C)C)nc2nn1-c1ccccc1` (stereo not shown) [Compound I-5-3], the inhibition at 0.1 µM on Hep G2 cells was determined as 36.3%.

In the case of `CC(C)c1nc2c(c(-c3ccccc3)nn2C)c(-c2ccc(F)cc2)c1/C=C/C(O)CC(O)CC(=O)O` (stereo not shown) [Compound I-5-4], the “percent decrease of counts” value in the data set on cholesterol biosynthesis was determined as 53%. For the same compound, in “Test D: Acute toxicity”, the mortality at 168 h turned out to be 0%.

For `Cc1nn(C)c2nc(C3CC3)c(/C=C/C(O)CC(O)CC(=O)O)c(-c3ccc(F)cc3)c12` (stereo not shown) [Compound I-5-5], the “percent decrease of counts” value in the data set with cholesterol biosynthesis came out at 49%. Besides, the inhibition at 0.1 µM at Hep G2 cells is 78.2%.

Regarding `CC(C)c1nc2c(cnn2-c2ccccc2)c(-c2ccc(F)cc2)c1/C=C/C(O)CC(O)CC(=O)O` (stereo not shown) [Compound I-5-6], the inhibition at 0.1 µM on Hep G2 cells is 53.3%.

As to `Cc1nn(C(C)(C)C)c2nc(C(C)C)c(/C=C/C(O)CC(O)CC(=O)O)c(-c3ccc(F)cc3)c12` (stereo not shown) [Compound I-5-7], the “percent decrease of counts” value with cholesterol biosynthesis came out at 52%. The compound also gave a mortality at 168 h in the data set “Test D: Acute toxicity” of 0%.

As to `CC(C)c1nc2c(c(C3CC3)nn2C)c(-c2ccc(F)cc2)c1/C=C/C(O)CC(O)CC(=O)O` (stereo not shown) [Compound I-5-9], the inhibition at 0.1 µM at Hep G2 cells came out at 55.3%.

In turn, `Cc1nn(Cc2ccccc2)c2nc(C(C)C)c(/C=C/C(O)CC(O)CC(=O)O)c(-c3ccc(F)cc3)c12` (stereo not shown) [Compound I-5-10] returned a mortality at 168 h in “Test D: Acute toxicity” of 0%.

On to `CC(C)c1nc2c(c(-c3ccc(Cl)cc3)nn2C)c(-c2ccc(F)cc2)c1/C=C/C(O)CC(O)CC(=O)O` (stereo not shown) [Compound I-5-11], for which the inhibition at 0.1 µM on Hep G2 cells was found to be 58.8%. The compound also showed a mortality at 168 h in “Test D: Acute toxicity” of 0%.

Turning to `CC(C)c1nc2c(c(C3CC3)nn2-c2ccccc2)c(-c2ccc(F)cc2)c1/C=C/C(O)CC(O)CC(=O)O` (stereo not shown) [Compound I-5-12], the inhibition at 0.1 µM on Hep G2 cells was 47.3%. Moreover, the mortality at 168 h in “Test D: Acute toxicity” worked out at 0%.

For `COc1ccc(-n2nc(C)c3c(-c4ccc(F)cc4)c(/C=C/C(O)CC(O)CC(=O)O)c(C(C)C)nc32)cc1` (stereo not shown) [Compound I-5-13], the inhibition at 0.1 µM on Hep G2 cells turned out to be 55.5%.

With `Cn1nc(-c2ccccc2)c2c(-c3ccc(F)cc3)c(/C=C/C(O)CC(O)CC(=O)O)c(C3CC3)nc21` (stereo not shown) [Compound I-5-14], the mortality at 168 h in “Test D: Acute toxicity” was determined as 0%.

In “Test D: Acute toxicity”, `Cc1nn(C(C)(C)C)c2nc(C3CC3)c(/C=C/C(O)CC(O)CC(=O)O)c(-c3ccc(F)cc3)c12` (stereo not shown) [Compound I-5-15] displayed a mortality at 168 h of 0%.

For the compound `CC(C)(C)n1nc(C2CC2)c2c(-c3ccc(F)cc3)c(/C=C/C(O)CC(O)CC(=O)O)c(C3CC3)nc21` (stereo not shown) [Compound I-5-16], the inhibition at 0.1 µM on Hep G2 cells amounted to 49%.

As for `CC(C)(C)n1nc(-c2ccccc2)c2c(-c3ccc(F)cc3)c(/C=C/C(O)CC(O)CC(=O)O)c(C3CC3)nc21` (stereo not shown) [Compound I-5-17], the inhibition at 0.1 µM at Hep G2 cells was found to be 36%.
